Measurements taken from ChEMBL document CHEMBL4765381, “Neuropeptide FF and Its Receptors: Therapeutic Applications and Ligand Development” (J Med Chem, 2020).
Numbered stars: 1 amine (or outer) side, 2 acyl side, 3 side chain; on linkers, the order of the positions; unused ones are H or OH. Square brackets hold non-standard residues; d marks the D form. Peptide text beside a SMILES is read from it. * marks the point of attachment. Nva(5-(4-Bn-piperidin-1-yl)) = N[C@@H](CCCN1CCC(Cc2ccccc2)CC1)C(=O)O; X1 = O=C1[C@@H](N[*:1])Cc2ccccc2CN1CCC(=O)[*:2]; Desaminotyrosyl = O=C(CCc1ccc(O)cc1)*; Dmt = Cc1cc(O)cc(C)c1C[C@H](N)C(=O)O; Tic = O=C(O)[C@@H]1Cc2ccccc2CN1

Columns and labels:
[1] = Displacement of [125I][Tyr1]-NPFF from NPFF receptor in rat spinal cord membranes by Cheng-Prusoff analysis; format: cell membranes, Membrane
[2] = test system: Mus musculus; test: Reversal of morphine-induced analgesia in icv dosed CDF1 mouse assessed as minimum effective dose measured after 15 mins by tail-flick test; format: functional; conditions: 0.25 h
[3] = Binding affinity to NPFFR in rat spinal cord; format: tissue-based
[4] = molecular target: T1, Neuropeptide FF receptor 2 (Homo sapiens, UniProt Q9Y5X5); conditions: COS-1, filed as antagonist, dose 7.5 µM, time 30.0 min
T1 sequence (Q9Y5X5 whole entry): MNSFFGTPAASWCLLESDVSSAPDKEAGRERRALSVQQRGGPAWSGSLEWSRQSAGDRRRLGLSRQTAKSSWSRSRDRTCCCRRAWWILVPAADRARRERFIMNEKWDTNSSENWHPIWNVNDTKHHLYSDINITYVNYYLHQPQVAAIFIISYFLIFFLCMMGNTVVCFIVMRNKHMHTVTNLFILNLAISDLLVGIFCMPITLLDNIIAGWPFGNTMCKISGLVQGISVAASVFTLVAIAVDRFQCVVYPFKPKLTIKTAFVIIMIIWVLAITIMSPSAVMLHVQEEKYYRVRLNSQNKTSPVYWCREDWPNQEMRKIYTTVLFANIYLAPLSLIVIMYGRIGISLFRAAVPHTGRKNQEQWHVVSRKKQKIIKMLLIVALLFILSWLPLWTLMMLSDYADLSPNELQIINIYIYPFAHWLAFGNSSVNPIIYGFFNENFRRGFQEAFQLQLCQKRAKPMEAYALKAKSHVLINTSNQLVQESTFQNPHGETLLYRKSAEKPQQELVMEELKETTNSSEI

[5] = Displacement of [125I]-1DMe from NPFF receptor in Sprague-Dawley rat dorsal horn of spinal cord incubated for 150 mins by autoradiography; format: tissue-based
[6] = molecular target: T1, Neuropeptide FF receptor 2; test: Agonist activity at human NPFFR2 expressed in CHO cells assessed as inhibition of forskolin-induced intracellular cAMP production incubated for 5 hrs by firefly/renilla luciferase reporter assay; format: functional, cell-based
[7] = molecular target: T1, Neuropeptide FF receptor 2; test: Displacement of TAMRA-NPFF from human NPFFR2 expressed in CHO-K1 cells preincubated for 15 mins followed by GTPgammaS addition and measured after 15 to 120 mins by competitive binding assay; format: cell-based
[8] = molecular target: T2, Neuropeptide FF receptor 1 (Homo sapiens, UniProt Q9GZQ6); test: Agonist activity at NPFFR1 (unknown origin) expressed in mouse NIH3T3 cells by receptor selection and amplification technology assay; format: cell-based
T2 sequence (Q9GZQ6 whole entry): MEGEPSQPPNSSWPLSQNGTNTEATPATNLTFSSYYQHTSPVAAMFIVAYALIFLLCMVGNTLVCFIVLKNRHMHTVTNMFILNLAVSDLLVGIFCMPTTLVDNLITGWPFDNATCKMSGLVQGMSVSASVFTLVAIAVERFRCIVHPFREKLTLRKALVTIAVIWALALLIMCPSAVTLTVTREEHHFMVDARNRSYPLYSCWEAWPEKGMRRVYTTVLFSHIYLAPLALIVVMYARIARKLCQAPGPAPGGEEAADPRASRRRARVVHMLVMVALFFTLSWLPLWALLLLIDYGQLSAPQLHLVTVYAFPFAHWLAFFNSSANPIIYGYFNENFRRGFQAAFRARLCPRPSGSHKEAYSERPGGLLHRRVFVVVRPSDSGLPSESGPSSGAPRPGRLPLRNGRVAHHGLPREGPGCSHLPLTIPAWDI

[9] = molecular target: T2, Neuropeptide FF receptor 1; test: Agonist activity at NPFFR1 (unknown origin) expressed in HEK293T cells harboring EP2 incubated for 15 mins by cAMP assay; format: functional, cell-based
[10] = molecular target: T1, Neuropeptide FF receptor 2; test: Agonist activity at NPFFR2 (unknown origin) expressed in mouse NIH3T3 cells by receptor selection and amplification technology assay relative to control; format: cell-based; conditions: filed as agonist
[11] = molecular target: T1, Neuropeptide FF receptor 2; test: Agonist activity at NPFFR2 (unknown origin) expressed in HEK293T cells harboring EP2 incubated for 15 mins by cAMP assay relative to control; format: functional, cell-based; conditions: filed as agonist
[12] = molecular target: T2, Neuropeptide FF receptor 1; test: Agonist activity at NPFFR1 (unknown origin) expressed in HEK293T cells harboring EP2 incubated for 15 mins by cAMP assay relative to control; format: functional, cell-based; conditions: filed as agonist
[13] = molecular target: T2, Neuropeptide FF receptor 1; test: Agonist activity at NPFFR1 (unknown origin) expressed in mouse NIH3T3 cells by receptor selection and amplification technology assay relative to control; format: cell-based
[14] = molecular target: T1, Neuropeptide FF receptor 2; test: Agonist activity at human NPFFR2 expressed in CHO cells assessed as stimulation of [35S]-GTPgammaS binding preincubated for 30 mins followed by [35S]-GTPgammaS stimulation and measured after 30 mins by scintillation counting method; format: functional, cell-based
[15] = molecular target: Neuropeptide FF receptor 1 (Rattus norvegicus, UniProt Q9EP86); test: Displacement of [125I](Tyr)NPF from rat NPFFR1 expressed in rat PC12 cells incubated for 1 hr; format: cell-based, PC-12
Neuropeptide FF receptor 1 (Rattus norvegicus, UniProt Q9EP86), sequence (Q9EP86 whole entry): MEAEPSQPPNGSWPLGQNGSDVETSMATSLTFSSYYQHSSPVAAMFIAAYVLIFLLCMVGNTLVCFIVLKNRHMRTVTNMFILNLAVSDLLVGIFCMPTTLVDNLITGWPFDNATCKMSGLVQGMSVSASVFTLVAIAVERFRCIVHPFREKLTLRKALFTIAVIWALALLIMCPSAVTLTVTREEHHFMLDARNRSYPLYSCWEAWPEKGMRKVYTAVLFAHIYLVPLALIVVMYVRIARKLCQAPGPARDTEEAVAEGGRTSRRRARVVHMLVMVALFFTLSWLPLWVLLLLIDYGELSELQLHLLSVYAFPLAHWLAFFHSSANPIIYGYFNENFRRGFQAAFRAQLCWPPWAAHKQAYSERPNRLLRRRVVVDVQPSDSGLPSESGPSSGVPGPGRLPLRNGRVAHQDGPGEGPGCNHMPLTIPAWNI

[16] = molecular target: T1, Neuropeptide FF receptor 2; test: Agonist activity at human NPFFR2 expressed in CHO cells by [35S]-GTP S binding assay relative to control; format: cell-based
[17] = molecular target: T2, Neuropeptide FF receptor 1; test: Agonist activity at human NPFFR1 expressed in CHO cells by [35S]-GTP S binding assay relative to control; format: cell-based
[18] = molecular target: Delta-type opioid receptor (Homo sapiens) (UniProt P41143); test: Agonist activity at human delta-opioid receptor expressed in HEK293 cells assessed as inhibition of forskolin-induced cAMP accumulation preincubated for 15 mins followed by forskolin addition in presence of IBMX by Glo-sensor cAMP assay relative to control; format: functional, cell-based; conditions: filed as agonist
Delta-type opioid receptor (Homo sapiens), sequence (P41143 whole entry): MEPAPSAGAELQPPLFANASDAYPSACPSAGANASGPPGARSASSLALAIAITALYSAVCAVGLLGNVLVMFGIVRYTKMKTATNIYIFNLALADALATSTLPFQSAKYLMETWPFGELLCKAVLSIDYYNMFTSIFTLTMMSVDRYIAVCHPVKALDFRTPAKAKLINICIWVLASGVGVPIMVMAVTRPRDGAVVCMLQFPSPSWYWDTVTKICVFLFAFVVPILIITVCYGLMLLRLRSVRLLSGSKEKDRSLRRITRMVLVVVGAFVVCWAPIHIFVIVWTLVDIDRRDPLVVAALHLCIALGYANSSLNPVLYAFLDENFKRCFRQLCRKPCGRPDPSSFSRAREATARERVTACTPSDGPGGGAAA

[19] = molecular target: Kappa-type opioid receptor (Homo sapiens, UniProt P41145); test: Agonist activity at human kappa opioid receptor expressed in HEK293 cells assessed as inhibition of forskolin-induced cAMP accumulation incubated for 15 mins followed by forskolin addition in presence of IBMX by Glo-sensor cAMP assay relative to control; format: functional, cell-based
Kappa-type opioid receptor, sequence (P41145 whole entry): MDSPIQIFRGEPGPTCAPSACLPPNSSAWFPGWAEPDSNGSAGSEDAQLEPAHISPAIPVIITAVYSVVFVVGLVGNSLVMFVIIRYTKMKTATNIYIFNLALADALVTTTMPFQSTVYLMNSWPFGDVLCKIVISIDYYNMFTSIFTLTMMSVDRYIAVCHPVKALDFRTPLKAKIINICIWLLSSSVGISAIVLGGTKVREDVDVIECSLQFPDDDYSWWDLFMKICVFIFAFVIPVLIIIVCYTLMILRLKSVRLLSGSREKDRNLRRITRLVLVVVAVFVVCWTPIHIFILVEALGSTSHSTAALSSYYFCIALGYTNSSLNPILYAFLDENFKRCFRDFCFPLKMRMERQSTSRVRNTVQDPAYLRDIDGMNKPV

[20] = molecular target: Mu-type opioid receptor (Homo sapiens) (UniProt P35372); test: Agonist activity at human mu-opioid receptor expressed in HEK293 cells assessed as inhibition of forskolin-induced cAMP accumulation preincubated for 15 mins followed by forskolin addition in presence of IBMX by Glo-sensor cAMP assay relative to control; format: functional, cell-based; conditions: filed as agonist
Mu-type opioid receptor (Homo sapiens), sequence (P35372 whole entry): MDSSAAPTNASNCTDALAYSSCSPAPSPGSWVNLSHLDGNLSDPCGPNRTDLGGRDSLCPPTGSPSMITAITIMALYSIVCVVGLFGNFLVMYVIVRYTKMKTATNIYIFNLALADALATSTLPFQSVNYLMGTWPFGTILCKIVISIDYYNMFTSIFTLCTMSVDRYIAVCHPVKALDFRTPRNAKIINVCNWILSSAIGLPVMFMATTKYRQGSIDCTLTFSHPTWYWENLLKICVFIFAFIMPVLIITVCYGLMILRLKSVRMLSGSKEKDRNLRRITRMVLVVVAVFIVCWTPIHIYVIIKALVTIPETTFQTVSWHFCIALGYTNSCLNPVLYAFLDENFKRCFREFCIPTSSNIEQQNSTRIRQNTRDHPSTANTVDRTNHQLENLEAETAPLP

[21] = molecular target: T1, Neuropeptide FF receptor 2; test: Displacement of [125I]Tyr-NPFF from human NPFFR2 expressed in green monkey Cos-1 cells; format: cell-based
[22] = molecular target: T2, Neuropeptide FF receptor 1; test: Displacement of [125I]YVP from human NPFFR1 expressed in CHO cells; format: cell-based
[23] = molecular target: T1, Neuropeptide FF receptor 2; test: Displacement of [125I]EYF from human NPFFR2 expressed in CHO cells by gamma-counter method; format: cell-based

CC(C)C[C@H](NC(=O)[C@@H](N)Cc1ccc(O)cc1)C(=O)N[C@@H](Cc1ccccc1)C(=O)N[C@@H](CCC(N)=O)C(=O)N1CCC[C@H]1C(=O)N[C@@H](CCC(N)=O)C(=O)N[C@@H](CCCN=C(N)N)C(=O)N[C@@H](Cc1ccccc1)C(N)=O (H-YLFQPQRF-NH2)
Ki [1]: 0.2 nM
MEC [2]: 8.8 nmol

CC(C)C[C@H](NC(=O)[C@H](Cc1ccccc1)NC(=O)CCc1ccc(O)cc1)C(=O)N[C@@H](Cc1ccccc1)C(=O)N[C@@H](CCC(N)=O)C(=O)N1CCC[C@H]1C(=O)N[C@@H](CCC(N)=O)C(=O)N[C@@H](CCCN=C(N)N)C(N)=O (Desaminotyrosyl-FLFQPQR-NH2)
Ki [3]: 0.2 nM

N=C(N)NCCC[C@H](NC(=O)C12CC3CC(CC(C3)C1)C2)C(=O)N[C@@H](Cc1ccccc1)C(N)=O
Ke [4]: 45 nM

CC(C)C[C@H](NC(=O)[C@@H](N)Cc1ccccc1)C(=O)N[C@@H](Cc1ccccc1)C(=O)N[C@@H](CCC(N)=O)C(=O)N1CCC[C@H]1C(=O)N[C@@H](CCC(N)=O)C(=O)N[C@@H](CCCN=C(N)N)C(=O)N[C@@H](Cc1ccccc1)C(N)=O
Ki [5]: 0.34 nM
MEC [2]: 22 nmol

COc1cc2c(c(OC)c1OC)-c1c(cc(C)c(C)c1OC)[C@@H](C(=O)Oc1ccccc1)[C@@](C)(O)[C@@H](C)C2
EC50 [6]: 1470 nM
Ki [7]: 1.42 nM

N=C(N)N/N=C/c1ccc(Cl)c(C(F)(F)F)c1
EC50 [8]: 3160 nM
EC50 [9]: 3160 nM
Efficacy [10]: 108%
Efficacy [11]: 89%
Efficacy [12]: 42%
Efficacy [13]: 30.6%

N=C(N)NCCC[C@H](NC(=O)[C@H](Cc1ccccc1)NC(=O)[C@@H]1CCCN1)C(=O)N1Cc2ccccc2C[C@H]1C(N)=O (H-PFR[Tic]-NH2)
EC50 [14]: 2400 nM
IC50 [15]: 0.1 nM
Ki [15]: 101 nM

Cc1cc(O)cc(C)c1C[C@H](N)C(=O)N[C@H](CCCNC(=N)N)C(=O)N[C@H]1Cc2ccccc2CN(CCC(=O)N[C@@H](CCCN2CCC(Cc3ccccc3)CC2)C(=O)N[C@@H](Cc2ccccc2)C(N)=O)C1=O (H-[Dmt][dR][X1][Nva(5-(4-Bn-piperidin-1-yl))]F-NH2)
Emax [16]: 38%
Emax [17]: 10%
Emax [18]: 90%
Emax [19]: 34%
Emax [20]: 85%

NC(N)=NCCC[C@H](NC(=O)C(c1ccccc1)c1ccccc1)C(=O)NCc1ccc(O)cc1
Ki [21]: 461 nM
Ki [22]: 12 nM

CC(C)C[C@H](NC(=O)[C@H](CC(N)=O)NC(=O)[C@@H]1CCCN1C(=O)[C@@H](N)C(C)C)C(=O)N1CCC[C@H]1C(=O)N[C@@H](CCC(N)=O)C(=O)N[C@@H](CCCNC(=N)N)C(=O)N[C@@H](Cc1ccccc1)C(N)=O
Ki [23]: 23 nM
